According to US20220175675A1, “ENCAPSULATING MOLECULES IN FAT GLOBULES” (The Regents of the University of California, priority 2019, published 2022):

Tests used:
[1] = Loading of vitamin D3 in bovine milk fat globules; format: physicochemical; conditions: for EE %, 1% v/v ethanol / EE %, 10% v/v ethanol / LY, 1% v/v ethanol / LY, 10% v/v ethanol: Bovine MFGs, 30 minutes
Description: (§1) Raw milk was diluted with Milli-Q water at 9:1 water to milk. Cream was separated from diluted milk via centrifugation at 3,000×g for 5 min. Cream was collected and reconstituted in water at 4% w/v concentration. The mixture was then further centrifuged at 3,000×g for 5 min. The cream was then collected and reconstituted to desired weight/volume in water (20% w/v in water).
(§2) Encapsulation of VD3 was achieved by incubation of compound's ethanolic solution with 20% w/v cream suspended in water. Once well mixed by gently inverting the tube, the contents were allowed to incubate in the dark. […] Significant values were reported with a 95% confidence interval, i.e. p<0.05.
Incubation time was varied: 15, 30, 45, and 60 min. The effect of incubation time on the encapsulation of VD3 in bovine MFGs was assessed using a t-test with adjusted significance level using Bonferroni correction (p=0.008). These statistical analyses were carried out using Microsoft Excel 2010 (Microsoft Inc., Bellevue, WA, U.S.A.). All procedures were conducted with minimal exposure to light. The experiments were conducted in triplicates.
(§3) At the end of the incubation period with VD3, cream was separated by centrifuging the suspension at 3,000×g for 5 min Cream was skimmed off the top with particular care not to include any of the aqueous phase. Methanol was added at 50 mg/mL and vortexed vigorously for 1 min. The mixture was then centrifuged at 3,000×g for 30 min. Liquid phase was collected and absorbance was measured at 264 nm. Absorbance blank was prepared fresh during every encapsulation run by introducing ethanol to cream suspended in water. Absorbance of the blank was subtracted from test samples to remove the absorbance of solvent, lipids, and other MFGs components. All experiments were conducted in triplicates.
(§4) Fat content in cream was measured to calculate the loading yield. The fat was isolated using the same set of preparation steps detailed in Example 13 with the addition of the last centrifugation step to recover cream after at the end of the loading process. The total fat content was determined using a modified Folch method (Folch, Lees, & Sloane-Stanley, 1957) where an additional step of washing the chloroform/water interface with 1:1 water/methanol solution was added to remove milk serum components. The loading yield of VD3 in milk fat was calculated as follows: […]
(§5) where CE is the VD3 extracted from MFGs (μg), and MF is the mass of milk fat (g) in MFGs suspension. The extraction procedure was conducted in triplicates using independent milk samples.

[2] = Loading of vitamin D3 in ovine milk fat globules; format: physicochemical; conditions: for EE %, 1% v/v ethanol / EE %, 10% v/v ethanol / LY, 1% v/v ethanol / LY, 10% v/v ethanol: Ovine MFGs, 30 minutes
Description: as §1, §2, §3, §4, §5

Description for physchem: One such molecular property that is used to predict partitioning potential is the octanol—water partition coefficient; Log P, which is the logarithm of the ratio of the solute concentration in the octanol phase to the solute concentration in the water phase, at a defined temperature.

C=C1CC[C@H](O)C/C1=C/C=C1\CCC[C@]2(C)[C@@H]([C@H](C)CCCC(C)C)CC[C@@H]12 [Cholecalciferol]
EE %, 1% v/v ethanol ([1]; 50 μM): 20.81 ± 8.82% | EE %, 10% v/v ethanol ([1]; 50 μM): 27.72 ± 7.94% | LY, 1% v/v ethanol ([1]; 50 μM): 19.78 ± 8.38 μg of VD3 per gram of milk fat | LY, 10% v/v ethanol ([1]; 50 μM): 26.34 ± 7.55 μg of VD3 per gram of milk fat | EE %, 1% v/v ethanol ([1]; 100 μM): 18.45 ± 0.91% | EE %, 10% v/v ethanol ([1]; 100 μM): 21.09 ± 1.10% | LY, 1% v/v ethanol ([1]; 100 μM): 35.07 ± 1.73 μg of VD3 per gram of milk fat | LY, 10% v/v ethanol ([1]; 100 μM): 40.09 ± 2.10 μg of VD3 per gram of milk fat | EE %, 1% v/v ethanol ([1]; 150 μM): 15.43 ± 1.27% | EE %, 10% v/v ethanol ([1]; 150 μM): 20.67 ± 1.97% | LY, 1% v/v ethanol ([1]; 150 μM): 44.00 ± 3.63 μg of VD3 per gram of milk fat | LY, 10% v/v ethanol ([1]; 150 μM): 58.93 ± 5.61^†¥ μg of VD3 per gram of milk fat | EE %, 1% v/v ethanol ([1]; 200 μM): 12.31 ± 3.56% | EE %, 10% v/v ethanol ([1]; 200 μM): 18.51 ± 1.52 % | LY, 1% v/v ethanol ([1]; 200 μM): 46.78 ± 13.52 μg of VD3 per gram of milk fat | LY, 10% v/v ethanol ([1]; 200 μM): 70.37 ± 5.79^†‡¥ μg of VD3 per gram of milk fat | EE %, 1% v/v ethanol ([1]; 250 μM): 14.28 ± 1.89% | EE %, 10% v/v ethanol ([1]; 250 μM): 16.85 ± 2.94 % | LY, 1% v/v ethanol ([1]; 250 μM): 67.84 ± 9.00 μg of VD3 per gram of milk fat | LY, 10% v/v ethanol ([1]; 250 μM): 80.07 ± 14.00 μg of VD3 per gram of milk fat | VD3 loaded into MFGs (up to) ([1]; bovine MFGs): Up to 80 μg/g milk fat | reduction in the encapsulation yield with extended incubation ([1]; bovine MFGs, incubation up to 60 min vs 45 min, 10% v/v ethanol, 250 μM VD3): approx. 8% | logP (physchem): ~7.5 | EE %, 1% v/v ethanol ([2]; 50 μM): 11.75 ± 0.44% | EE %, 10% v/v ethanol ([2]; 50 μM): 37.83 ± 10.36% | LY, 1% v/v ethanol ([2]; 50 μM): 11.17 ± 0.41 μg of VD3 per gram of milk fat | LY, 10% v/v ethanol ([2]; 50 μM): 35.95 ± 9.85 μg of VD3 per gram of milk fat | EE %, 1% v/v ethanol ([2]; 100 μM): 10.70 ± 3.12% | EE %, 10% v/v ethanol ([2]; 100 μM): 20.29 ± 4.85 % | LY, 1% v/v ethanol ([2]; 100 μM): 20.35 ± 5.93 μg of VD3 per gram of milk fat | LY, 10% v/v ethanol ([2]; 100 μM): 38.56 ± 9.23 μg of VD3 per gram of milk fat | EE %, 1% v/v ethanol ([2]; 150 μM): 10.17 ± 0.67% | EE %, 10% v/v ethanol ([2]; 150 μM): 18.95 ± 6.34 % | LY, 1% v/v ethanol ([2]; 150 μM): 29.01 ± 1.92 μg of VD3 per gram of milk fat | LY, 10% v/v ethanol ([2]; 150 μM): 54.03 ± 18.08 μg of VD3 per gram of milk fat | EE %, 1% v/v ethanol ([2]; 200 μM): 8.49 ± 1.65% | EE %, 10% v/v ethanol ([2]; 200 μM): 14.30 ± 3.90 % | LY, 1% v/v ethanol ([2]; 200 μM): 32.28 ± 6.26 μg of VD3 per gram of milk fat | LY, 10% v/v ethanol ([2]; 200 μM): 54.33 ± 14.83 μg of VD3 per gram of milk fat | EE %, 1% v/v ethanol ([2]; 250 μM): 8.13 ± 1.27% | EE %, 10% v/v ethanol ([2]; 250 μM): 10.31 ± 1.14 % | LY, 1% v/v ethanol ([2]; 250 μM): 38.62 ± 6.06 μg of VD3 per gram of milk fat | LY, 10% v/v ethanol ([2]; 250 μM): 49.00 ± 5.43 μg of VD3 per gram of milk fat | VD3 loaded into MFGs (up to) ([2]; ovine MFGs): ≤ 54 μg/g milk fat
